*1 amine or outer side, *2 acyl side, *3 side chain or, on linkers, in order; H or OH if unused. Where a SMILES comes first, the peptide text is derived from it. Bridges are numbered along the chain shown (N, C = ends). [ ]: non-standard residue; d: D form. The star is where a group is joined. Met(S-mXyl) = C[S+](CC[C@H](N[*:1])C(=O)[*:2])Cc1cccc(C[*:3])c1; 5FAM = O=C1OC2(c3ccc(O)cc3Oc3cc(O)ccc32)c2ccc(C(=O)*)cc21
What was measured:
[1] = biological target: T1, cJun/TRE DNA (Homo sapiens, UniProt P05412); test: CD cJun/TRE DNA antagonism assay (TRE DNA signal at 281 nm); type: biochemical
T1 construct: LC-MS analysis of the cJun bZIP domain; made in house
T1 sequence (P05412 252-315 limits assumed): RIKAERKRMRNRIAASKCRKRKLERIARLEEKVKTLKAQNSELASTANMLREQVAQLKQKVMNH
Source text: CD antagonism experiments were next carried out, as previously described,^[ [13], [18] ^] whereby the structure of a TRE DNA duplex was monitored by following a peak at 281 nm, which shifts upon binding to cJun. The introduction of antagonist to the sample causes the peak to shift back to its unbound signal in a dose‐dependent manner as the cJun is sequestered, leaving unbound DNA in its original structure (Figure S9, Supporting Information). As there is no protein absorbance in this region of the CD spectrum, this measures DNA structure only and produces a simple readout of the proportion of free/cJun‐bound DNA at different antagonist concentrations. By fitting these plots to a Hill equation (OriginPro), IC50 values for HW1, HW29, and HW31 were determined in both reducing and oxidizing conditions (Table S1, Supporting Information; Figure 3C).
Circular dichroism (CD): An Applied Photophysics Chirascan was used for CD measurements, with a 200 µL sample in a 1 mm path length CD cell. Protein/DNA samples were suspended in 20 mM potassium phosphate,150 mM potassium fluoride at pH 7.4 with or without 5 mM TCEP. cJun was added to TRE DNA (5’-[…], Merck) before addition of antagonist peptide and these samples were equilibrated for 30 minutes before measurement.^[13] For full spectra, three scans between 190 and 260 nm (265-320 nm for DNA binding experiments) were collected with a bandwidth of 1 nm and data sampled at a rate of 0.5 s^-1. These scans were averaged and converted to molar residue ellipticities (MRE). Thermal denaturation experiments were performed by measuring the ellipticity at 222 nm over a 1 to 95°C gradient at 1°C increments. Post-melt scans at 20°C confirmed the transitions were reversible as they overlaid within 5% of the pre-melt scan. The resulting thermal denaturation curves were converted to MRE and fitted to a two-state model, derived via modification of the Gibbs–Helmholtz equation to determine the melting temperature (Tm) ^[26].

[2] = biological target: CREB1 (Homo sapiens, UniProt P16220); test: Selectivity: incubation with CREB1 monitored by SDS-PAGE; type: biochemical; settings: HW33 40 µM + CREB1 20 µM, 24 h
CREB1, sequence (P16220 whole entry, species assumed, the tested form may be a part): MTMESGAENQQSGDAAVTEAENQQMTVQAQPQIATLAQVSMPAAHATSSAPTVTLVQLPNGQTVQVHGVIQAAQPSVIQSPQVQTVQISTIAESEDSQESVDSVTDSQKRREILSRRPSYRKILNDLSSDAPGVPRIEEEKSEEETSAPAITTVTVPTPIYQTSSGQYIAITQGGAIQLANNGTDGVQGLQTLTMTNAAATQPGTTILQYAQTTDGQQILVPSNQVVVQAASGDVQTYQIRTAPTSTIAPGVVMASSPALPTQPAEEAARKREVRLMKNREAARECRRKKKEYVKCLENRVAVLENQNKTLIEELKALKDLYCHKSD
Experimental: The selectivity of this reaction, which is highly proximity‐driven, was first investigated by incubating HW33 (40 µM) with CREB1 (20 µM), a closely related bZIP‐containing TF that contains a Cys residue at the same position within the bZIP domain as cJun. Moreover, CREB1 contains two additional Cys residues located within the LZ domain that are not found within cJun. […] To further investigate HW33 selectivity for cJun, a reaction was next undertaken in SK‐MEL‐28 human melanoma cell lysate using FAM‐HW33, in which the N‐terminal acetyl group of HW33 was replaced with carboxyfluorescein to allow for peptide detection (Figure S17, Supporting Information). Samples containing cJun bZIP (20 µM) and FAM‐HW33 (20 µM) were incubated with or without lysate (10 µg) at 37 °C for 4 h before analysis by SDS‐PAGE (Figure 4E). […]
Covalent conjugation assays: Initial tests were performed by incubation of HW32 and HW33 (40 µM) with cJun bZIP (20 µM) in 50 mM potassium phosphate butter, 150 mM NaCl, pH 7.4 at 37°C, shaking at 450 rpm. […] The samples were analysed by LC-MS on a Luna C18(2) column (5-μm particle size, 100 Å pore size, 150 × 4.6 mm; Phenomenex). The % occupancy was determined by the ratio of conjugated cJun over total cJun as determined by the area under the peaks in the chromatogram measured at a 215 nm wavelength, with their identity confirmed by ESI-MS. […]

[3] = biological target: T2, cJun/FAM-TRE DNA (Homo sapiens, UniProt P05412); test: Fluorescence polarisation cJun/FAM-TRE DNA antagonism time course; type: biochemical; settings: 10 nM FAM-TRE, 625 nM cJun, peptide 10000-20 nM, 5 mM TCEP, pH 7.4; quadruplicate
T2 construct: LC-MS analysis of the cJun bZIP domain; made in house
T2 sequence (P05412 252-315 limits assumed): as the sequence (P05412 252-315 limits assumed) above

[4] = tested on: SK-MEL-28 cells; test: Cell imaging of FAM-peptide uptake; type: cell-based, human; settings: SK-MEL-28, 10 and 30 µM, 6 h, 37 °C, fixed, DAPI counterstain, fluorescence microscopy
Experimental: Cell imaging: Cells were seeded at 40,000 cells per well in a […] and incubated for 24 hours before treatment with vehicle (1% DMSO in water) or peptide for 6 hours. The media was removed and the cells were washed 3x with PBS. 1 mL of paraformaldehyde (80 mg/mL in PBS) was added and incubated at room temperature for 10 minutes. The paraformaldehyde was removed and fixed cells were washed with 3x PBS. 500 µL of DAPI (1 µg/mL) was then added and incubated at room temperature for 5 minutes following by a 3x PBS wash. Cells were imaged using an Evos FL digital inverted fluorescence microscope using brightfield and both GFP (for the FAM label) and DAPI fluorescence filters.

[5] = biological target: cJun (Homo sapiens, UniProt P05412); test: Western blot of cJun levels in cell lysate after peptide addition; type: biochemical; parameters: endogenous in cells; host or cells: SK-MEL-28; settings: SK-MEL-28 cell lysate with protease inhibitor cocktail, 30 µM peptide, 37 °C, 5 mM TCEP, pH 7.4, western blot over time
cJun, sequence (P05412 whole entry): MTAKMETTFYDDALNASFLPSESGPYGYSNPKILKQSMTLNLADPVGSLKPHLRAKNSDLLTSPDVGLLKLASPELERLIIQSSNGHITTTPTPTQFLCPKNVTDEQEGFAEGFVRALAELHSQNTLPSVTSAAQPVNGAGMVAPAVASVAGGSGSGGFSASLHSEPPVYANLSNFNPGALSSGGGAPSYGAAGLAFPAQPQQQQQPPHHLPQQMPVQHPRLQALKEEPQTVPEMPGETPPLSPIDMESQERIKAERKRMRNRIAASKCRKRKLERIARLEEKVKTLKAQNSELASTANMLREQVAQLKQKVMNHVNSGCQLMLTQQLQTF
Experimental: Figure S25 – cJun protein levels in SK-MEL-28 cell lysate (with the addition of Roche cOmplete protease inhibitor cocktail) upon addition of 30 µM FAM-HW33-NLSTAT, determined over time by western blot. Cells were lysed by sonication in 20 mM KP, 150 mM NaCl, 5 mM TCEP, pH 7.4 and incubated at 37°C after peptide addition. Uncropped blots are also shown.

[6] = tested on: SK-MEL-28 cells; test: MTT cell viability assay; type: cell-based, human; settings: SK-MEL-28, 30 µM
Experimental: Cell viability assay: Cells were seeded at 15,000 cells per well in a 96-well plate and incubated for 24 hours before treatment with vehicle (1% DMSO in water) or peptide for 6 or 24 hours. The media was removed and the cells were washed twice with PBS before 50 µL of MTT (1 mg/mL in PBS, Merck) was added and incubated at 37°C for 30 minutes. The MTT solution was removed and 100 µL isopropanol was added to each well and rocked at room temperature for 5 minutes. Absorbance at 595 nm was measured using a Clariostar plate reader. Unless otherwise stated, all data are reported as an average of three independent biological experiments, with each data point determined in triplicate (i.e. 9 measurements) and reported as the mean with errors given as one standard deviation. For data with one independent measurement, each data point was determined in triplicate i.e. 3 measurements and reported as the mean with errors given as one standard deviation.

## CC[C@H](C)[C@H](NC(=O)[C@H](CCC(=O)O)NC(=O)[C@H](CCCCN)NC(=O)[C@H](CCCNC(=N)N)NC(=O)[C@H](CC(C)C)NC(=O)[C@H](C)NC(=O)[C@H](Cc1ccc(O)cc1)NC(=O)[C@H](CC(N)=O)NC(=O)[C@H](CCCNC(=N)N)NC(=O)[C@H](CCC(=O)O)NC(=O)[C@H](CCC(=O)O)NC(=O)[C@H](CC(C)C)NC(=O)[C@H](CCC(N)=O)NC(=O)[C@H](CCC(=O)O)NC(=O)[C@@H](NC(=O)[C@H](CCC(=O)O)NC(=O)[C@H](CCC(=O)O)NC(=O)[C@H](CCC(=O)O)NC(=O)[C@H](CC(C)C)NC(=O)[C@@H](NC(=O)[C@H](CC(=O)O)NC(=O)[C@H](CCC(=O)O)NC(=O)[C@H](CCC(=O)O)NC(=O)[C@@H](NC(=O)[C@@H]1CSCc2cccc(c2)C[S+](C)CC[C@H](NC(=O)[C@H](CCC(=O)O)NC(C)=O)C(=O)N[C@@H](CCC(=O)O)C(=O)N[C@@H](CCC(=O)O)C(=O)N[C@@H](CC(C)C)C(=O)N1)C(C)C)C(C)C)[C@@H](C)CC)C(=O)N[C@H]1CCCCNC(=O)C[C@@H](C(=O)N[C@@H](CCC(N)=O)C(N)=O)NC(=O)[C@H](CCC(N)=O)NC(=O)[C@H](CC(C)C)NC(=O)[C@H](CC(=O)O)NC1=O (stereo partly shown) [HW33] (Ac-E[Met(S-mXyl)]EELCVEEDVLEEEIEQLEERNYALRKEIKDLQDQ-NH2; thioether 2-6; lactam 31-35)
[1]; CD antagonism time course
  Fold increase in antagonism over the 4 h time course: 5 fold
[1]; IC50 plotted over time
  Time dependence of CD antagonism compared with HW1: improved antagonism over HW1 after 60 min
[2]
  Conjugation with CREB1: no conjugation observed
[3]
  Time dependence of FP antagonism compared with HW1: improved antagonism over HW1 after 240 minutes

## 5FAM-E[Met(S-mXyl)]EELCVEEDVLEEEIEQLEERNYALRKEIKDLQDQPKKKRKVYGRKKRRQRRR-NH2 (thioether 2-6; lactam 31-35) [FAM-HW33-NLSTAT]
[4]
  Cellular uptake (FAM fluorescence within cells): FAM fluorescence was observed within the cells
[5]
  cJun depletion in cell lysate: cJun depletion effect was also observed in cell lysate
[6]
  Fold larger reduction in cell viability relative to HW1: 2.2 x

From PMC12079500, “An Intracellular Peptide Library Screening Platform Identifies Irreversible Covalent Transcription Factor Inhibitors” (Advanced Science, 2025)
